Data as given in BindingDB's records for doi:10.1021/acschembio.7b00707 (Istituto Italiano di Tecnologia, 2017).

Biological target: Breast cancer type 2 susceptibility protein/DNA repair protein RAD51 homolog 1 (Homo sapiens, UniProt P51587+Q06609)
Experiment: ELISA assay
Description: This assay is an efficient tool for directly measuring inhibition of the BRC4−Rad51 interaction, at a molecular level, which is described by Rajendra et al.

Chain of Breast cancer type 2 susceptibility protein/DNA repair protein RAD51 homolog 1 (P51587 whole entry V2466A): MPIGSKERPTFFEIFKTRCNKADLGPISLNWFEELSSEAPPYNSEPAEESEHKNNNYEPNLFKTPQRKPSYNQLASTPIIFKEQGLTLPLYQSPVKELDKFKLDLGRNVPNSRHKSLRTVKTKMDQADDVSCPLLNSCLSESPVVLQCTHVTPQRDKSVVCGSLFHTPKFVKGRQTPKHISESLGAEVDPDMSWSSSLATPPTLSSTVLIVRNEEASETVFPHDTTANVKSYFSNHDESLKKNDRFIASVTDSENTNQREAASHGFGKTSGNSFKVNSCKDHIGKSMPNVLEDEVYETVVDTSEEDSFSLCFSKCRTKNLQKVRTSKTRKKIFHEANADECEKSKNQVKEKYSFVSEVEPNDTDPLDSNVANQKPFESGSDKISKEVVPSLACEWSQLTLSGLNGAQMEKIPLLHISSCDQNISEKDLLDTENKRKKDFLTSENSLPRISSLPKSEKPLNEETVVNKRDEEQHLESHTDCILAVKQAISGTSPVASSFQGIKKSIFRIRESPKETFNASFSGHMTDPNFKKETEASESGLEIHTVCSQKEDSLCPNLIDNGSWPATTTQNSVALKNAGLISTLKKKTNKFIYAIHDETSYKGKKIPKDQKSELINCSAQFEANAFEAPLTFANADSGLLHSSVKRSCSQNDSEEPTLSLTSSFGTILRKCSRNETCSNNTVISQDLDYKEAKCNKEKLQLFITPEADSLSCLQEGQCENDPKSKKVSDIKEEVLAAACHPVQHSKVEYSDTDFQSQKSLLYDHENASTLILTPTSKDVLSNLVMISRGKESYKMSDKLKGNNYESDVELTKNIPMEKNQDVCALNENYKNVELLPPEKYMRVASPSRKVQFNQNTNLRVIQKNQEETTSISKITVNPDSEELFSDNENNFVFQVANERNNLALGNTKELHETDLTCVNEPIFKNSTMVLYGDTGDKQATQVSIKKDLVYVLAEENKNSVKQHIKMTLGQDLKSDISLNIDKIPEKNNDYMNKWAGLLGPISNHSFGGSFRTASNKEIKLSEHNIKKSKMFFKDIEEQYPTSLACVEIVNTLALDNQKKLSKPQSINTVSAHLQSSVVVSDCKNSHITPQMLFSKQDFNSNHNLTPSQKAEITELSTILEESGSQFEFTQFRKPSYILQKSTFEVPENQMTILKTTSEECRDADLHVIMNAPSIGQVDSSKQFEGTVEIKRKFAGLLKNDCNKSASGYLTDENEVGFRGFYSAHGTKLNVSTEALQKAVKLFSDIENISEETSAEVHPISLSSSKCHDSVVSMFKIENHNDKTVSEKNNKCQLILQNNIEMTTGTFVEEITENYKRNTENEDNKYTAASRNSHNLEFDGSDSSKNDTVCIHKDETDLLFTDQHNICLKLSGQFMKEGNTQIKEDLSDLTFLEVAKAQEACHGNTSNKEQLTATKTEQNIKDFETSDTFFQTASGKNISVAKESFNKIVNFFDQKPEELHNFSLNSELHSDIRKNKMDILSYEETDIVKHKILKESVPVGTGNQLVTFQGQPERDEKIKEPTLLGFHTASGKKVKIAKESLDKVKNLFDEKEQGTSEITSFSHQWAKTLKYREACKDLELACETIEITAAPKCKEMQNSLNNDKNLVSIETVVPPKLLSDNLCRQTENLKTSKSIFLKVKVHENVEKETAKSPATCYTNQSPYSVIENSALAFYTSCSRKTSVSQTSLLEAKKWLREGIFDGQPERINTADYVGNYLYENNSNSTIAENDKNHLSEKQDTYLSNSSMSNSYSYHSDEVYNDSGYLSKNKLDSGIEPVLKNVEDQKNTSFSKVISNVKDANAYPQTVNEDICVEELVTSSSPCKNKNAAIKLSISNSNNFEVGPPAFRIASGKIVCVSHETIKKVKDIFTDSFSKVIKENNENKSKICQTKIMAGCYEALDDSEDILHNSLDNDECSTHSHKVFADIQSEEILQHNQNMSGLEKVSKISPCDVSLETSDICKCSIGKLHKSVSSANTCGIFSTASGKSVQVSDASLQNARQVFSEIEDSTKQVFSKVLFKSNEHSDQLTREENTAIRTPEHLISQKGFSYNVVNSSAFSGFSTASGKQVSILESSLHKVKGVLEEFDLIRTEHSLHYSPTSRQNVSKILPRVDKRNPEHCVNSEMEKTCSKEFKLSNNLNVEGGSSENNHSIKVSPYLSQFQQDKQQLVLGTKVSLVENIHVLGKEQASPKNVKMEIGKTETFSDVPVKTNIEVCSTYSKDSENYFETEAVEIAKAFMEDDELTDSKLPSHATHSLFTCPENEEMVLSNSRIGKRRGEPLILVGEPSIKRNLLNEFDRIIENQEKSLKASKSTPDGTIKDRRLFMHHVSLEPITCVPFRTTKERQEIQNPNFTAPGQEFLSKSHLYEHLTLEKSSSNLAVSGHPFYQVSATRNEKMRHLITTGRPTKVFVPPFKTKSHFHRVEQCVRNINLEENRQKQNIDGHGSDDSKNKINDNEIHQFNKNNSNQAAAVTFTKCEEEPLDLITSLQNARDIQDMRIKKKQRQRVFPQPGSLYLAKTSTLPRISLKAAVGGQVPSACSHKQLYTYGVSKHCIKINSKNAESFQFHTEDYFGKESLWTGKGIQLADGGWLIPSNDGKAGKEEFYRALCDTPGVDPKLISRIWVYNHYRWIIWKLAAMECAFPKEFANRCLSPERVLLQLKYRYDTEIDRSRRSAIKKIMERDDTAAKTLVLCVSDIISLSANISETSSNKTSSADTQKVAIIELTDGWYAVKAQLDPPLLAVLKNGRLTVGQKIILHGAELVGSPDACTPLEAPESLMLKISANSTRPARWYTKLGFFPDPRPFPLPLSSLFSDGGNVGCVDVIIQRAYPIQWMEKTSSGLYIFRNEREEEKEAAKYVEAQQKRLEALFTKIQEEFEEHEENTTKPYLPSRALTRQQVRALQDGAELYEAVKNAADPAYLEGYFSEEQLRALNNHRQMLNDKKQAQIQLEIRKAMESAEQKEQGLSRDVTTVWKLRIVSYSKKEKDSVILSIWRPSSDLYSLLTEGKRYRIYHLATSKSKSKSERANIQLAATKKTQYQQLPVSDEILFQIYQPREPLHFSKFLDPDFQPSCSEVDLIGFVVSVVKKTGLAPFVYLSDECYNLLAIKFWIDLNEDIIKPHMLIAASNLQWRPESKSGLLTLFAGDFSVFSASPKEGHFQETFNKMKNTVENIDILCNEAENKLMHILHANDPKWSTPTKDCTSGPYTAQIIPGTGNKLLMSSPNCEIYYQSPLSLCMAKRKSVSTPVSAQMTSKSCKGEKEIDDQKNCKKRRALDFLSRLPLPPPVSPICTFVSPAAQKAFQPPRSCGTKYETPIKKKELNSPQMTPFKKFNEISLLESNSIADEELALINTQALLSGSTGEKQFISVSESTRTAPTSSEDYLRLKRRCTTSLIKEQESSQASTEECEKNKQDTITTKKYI
Chain of Breast cancer type 2 susceptibility protein/DNA repair protein RAD51 homolog 1 (Q06609 whole entry): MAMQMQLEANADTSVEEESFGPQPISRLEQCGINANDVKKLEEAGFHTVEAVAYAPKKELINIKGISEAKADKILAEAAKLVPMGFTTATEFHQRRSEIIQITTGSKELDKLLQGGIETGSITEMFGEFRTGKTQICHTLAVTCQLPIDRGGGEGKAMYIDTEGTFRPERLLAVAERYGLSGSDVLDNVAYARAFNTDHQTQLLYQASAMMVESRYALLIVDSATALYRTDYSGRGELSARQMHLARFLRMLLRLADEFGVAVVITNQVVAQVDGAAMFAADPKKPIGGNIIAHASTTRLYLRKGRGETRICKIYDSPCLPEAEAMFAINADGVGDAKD

## O=C(CSc1nnc(Cn2c(=O)sc3ccccc32)n1CCc1ccccc1)NC1CCCC1 [F0665-0303]
  EC50: 53 µM

## O=C(CSc1nnc(Cn2c(=O)sc3ccccc32)n1CCCc1ccccc1)NC1CCCC1 [N-cyclopentyl-2-((5-((2-oxobenzo[d]thiazol-3(2H)-yl)methyl)-4-phenpropyl-4H-1,2,4-triazol-3-yl)thio)acetamide]
  EC50: 25 µM
